Results as given in paper PMC9144480 (Pharmaceuticals, 2022).
“Also recorded” adds a separate entry of the source. Where two headings read alike, the source gives them in different places.

What was measured:
[1] = tested on: pseudovirus bearing SARS-CoV-2 S protein (original strain); assay: microbe, parasite or virus in culture; format: cell-based
CD40–CD154 PPI = conditions: ref [23]; cited from earlier work
HCoV-NL63 S1–hACE2 PPI = molecular target: T1, HCoV-NL63 S1–hACE2 PPI (Homo sapiens, UniProt Q9BYF1); assay: biochemical; format: binding
T1 construct: HCoV-NL63 S1 (His tag, 40600-V08H); purchased Sino Biological 40600-V08H; 10108-H05H

COVID-19 [2] = conditions: cited from earlier work
IL-2–IL-2Rα PPI = molecular target: T2, IL-2–IL-2Rα PPI (Homo sapiens, UniProt P01589+P60568); assay: biochemical; format: binding
T2 construct: purchased ACROBiosystems IL2-H52H8; ILA-H5251

SARS-CoV-2 spike RBD = molecular target: T3, SARS-CoV-2 spike RBD (Severe acute respiratory syndrome coronavirus 2, UniProt P0DTC2); assay: Surface plasmon resonance binding to spike RBD; conditions: single and multicycle kinetics; qualitative, not 1:1 binding
T3 construct: SARS-CoV-2 spike RBD (His-tagged, Arg319-Ph541); RayBiotech; His tag; purchased RayBiotech
Experimental: SPR was performed at Reaction Biology (Malvern, PA, USA) using single and multicycle kinetics to assess the binding to the SARS-CoV-2 spike RBD (His-tagged, Arg319-Ph541; RayBiotech; Peachtree Corners, GA, USA) and determine the kinetics/affinity. Measurements were performed on a Biacore 8K (Cytiva) with a series S CM5 (Cytiva) sensor chip. Spike RBD was immobilized via amine coupling at pH 5.5 to immobilization levels of ~1500–2300 RU (single-cycle) and ~2500 RU (multi-cycle). A running buffer of PBS-p+ (20 mM phosphate buffer with 2.7 mM KCl, 137 mM NaCl, and 0.05% surfactant Tween20) with 1% DMSO was used. All data was solvent corrected, reference subtracted, and blank subtracted using the Biacore Insight Evaluation Software. To try and obtain kinetic/affinity parameters, the data was evaluated using a 1:1 kinetic binding model. However, the binding behavior appears to be more complex than can be approximated using a 1:1 binding model, which prevents a quantitative analysis of the SPR binding data.

HEK293T cells = assay: Cytotoxicity, MTT assay; format: cell-based, human; conditions: 48 h with MeBlu + 48 h culture
Experimental: For the MTT assay, HEK293T cells were seeded onto 96 wells with the density of 5.0 × 10^4 cells per well. […] After that, cells were incubated with MTT reagent at 37 °C for 2 h. The medium was removed, and dimethyl sulfoxide was added. Cell viability was evaluated using a microplate reader at 570 nm absorbance (SpectraMax iD3, Molecular DEVICES, San Jose, CA, USA).

COVID-19 [3] = conditions: human, in vivo, iv, 1 mg/kg; cited from earlier work
influenza virus H1N1 = conditions: ref [36]; cited from earlier work
SARS-CoV-2 [4] = conditions: read-out: IC50, concentration levels that seem to provide antiviral activity; overall range over this work and published studies; ref Table 1; cited from earlier work
[5] = tested on: VSV-SARS-CoV-2-Sdel18 pseudovirus; conditions: Vero E6; ref [40]; read-out: IC50, VSV-SARS-CoV-2-Sdel18 pseudovirus entry; cited from earlier work
hCoV-229E = conditions: read-out: IC50, image-based multicycle replication assay; Huh7; ref [41]; cited from earlier work
SARS-CoV-2 [6] = conditions: read-out: IC50, SARS-CoV-2 antiviral activity; Vero E6; ref [36]; cited from earlier work
[7] = tested on: influenza-like illness during COVID-19 pandemic; conditions: 2500 patients, MeBlu 75 mg t.i.d., March 2020; ref [49]; cited from earlier work
SARS-CoV-2 pseudovirus = assay: microbe, parasite or virus in culture; conditions: Severe acute respiratory syndrome-related coronavirus, HEK-293T, read-out: IC50, SARS-CoV-2 pseudovirus cell entry
hACE2 = hACE2 (Homo sapiens, UniProt Q9BYF1); assay: Surface plasmon resonance (single-cycle kinetics) binding to hACE2; conditions: data not shown
[8] = ref [19],[21],[22]; cited from earlier work
TNF-R1−TNFα PPI = conditions: ref [23]; cited from earlier work
HCV E–CD81 PPI = molecular target: T4, HCV E–CD81 PPI (UniProt P27958+P60033); assay: biochemical; format: binding
T4 construct: hepatitis C virus envelope glycoprotein E with CD81; purchased R&D Systems 9146-HC; 9144-CD

COVID-19 [9] = conditions: cited from earlier work; remark: listed apart in the source
SARS-CoV-2 (B.1.5) = assay: microbe, parasite or virus in culture; format: cell-based; conditions: Severe acute respiratory syndrome coronavirus 2, Vero C1008, 48 h, read-out: IC50, inhibition of SARS-CoV-2 replication
[10] = cited from earlier work
SARS-CoV-2 [11] = conditions: cited from earlier work
[12] = Pseudovirus, HEK-293T, read-out: IC50, inhibition of cell entry of pseudovirus

Sequence of hACE2 (Q9BYF1 18-805): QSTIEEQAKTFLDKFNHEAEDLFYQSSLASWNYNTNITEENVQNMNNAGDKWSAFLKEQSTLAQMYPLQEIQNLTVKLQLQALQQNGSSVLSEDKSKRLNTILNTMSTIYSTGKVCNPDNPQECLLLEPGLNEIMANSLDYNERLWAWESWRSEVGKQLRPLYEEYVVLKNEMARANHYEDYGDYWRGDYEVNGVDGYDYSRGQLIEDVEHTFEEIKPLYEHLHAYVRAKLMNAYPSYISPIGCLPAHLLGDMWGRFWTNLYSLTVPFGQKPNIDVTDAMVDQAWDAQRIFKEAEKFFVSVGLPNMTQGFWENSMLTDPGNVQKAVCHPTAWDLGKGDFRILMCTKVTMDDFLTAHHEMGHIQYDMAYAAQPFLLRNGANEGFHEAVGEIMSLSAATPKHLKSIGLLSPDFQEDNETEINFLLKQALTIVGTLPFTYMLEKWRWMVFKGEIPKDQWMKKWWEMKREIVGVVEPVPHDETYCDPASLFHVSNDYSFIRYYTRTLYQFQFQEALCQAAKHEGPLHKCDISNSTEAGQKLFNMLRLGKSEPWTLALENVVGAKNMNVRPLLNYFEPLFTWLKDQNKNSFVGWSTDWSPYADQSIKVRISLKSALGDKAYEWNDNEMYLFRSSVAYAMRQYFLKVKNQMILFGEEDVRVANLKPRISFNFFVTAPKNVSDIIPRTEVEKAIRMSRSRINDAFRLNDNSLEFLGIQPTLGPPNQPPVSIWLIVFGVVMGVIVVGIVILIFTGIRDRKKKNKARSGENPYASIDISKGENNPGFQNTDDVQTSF
T2 sequence (P01589 22-213): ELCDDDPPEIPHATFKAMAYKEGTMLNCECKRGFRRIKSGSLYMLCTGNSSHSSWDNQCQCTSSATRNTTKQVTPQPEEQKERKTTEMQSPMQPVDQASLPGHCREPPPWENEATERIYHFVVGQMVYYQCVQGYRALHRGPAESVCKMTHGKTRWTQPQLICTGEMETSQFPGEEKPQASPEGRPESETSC
T2 sequence (P60568 21-153): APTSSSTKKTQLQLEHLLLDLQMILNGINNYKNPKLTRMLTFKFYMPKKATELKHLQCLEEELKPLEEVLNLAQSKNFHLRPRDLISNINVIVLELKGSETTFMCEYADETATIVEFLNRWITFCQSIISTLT
T1 sequence (Q9BYF1 18-740): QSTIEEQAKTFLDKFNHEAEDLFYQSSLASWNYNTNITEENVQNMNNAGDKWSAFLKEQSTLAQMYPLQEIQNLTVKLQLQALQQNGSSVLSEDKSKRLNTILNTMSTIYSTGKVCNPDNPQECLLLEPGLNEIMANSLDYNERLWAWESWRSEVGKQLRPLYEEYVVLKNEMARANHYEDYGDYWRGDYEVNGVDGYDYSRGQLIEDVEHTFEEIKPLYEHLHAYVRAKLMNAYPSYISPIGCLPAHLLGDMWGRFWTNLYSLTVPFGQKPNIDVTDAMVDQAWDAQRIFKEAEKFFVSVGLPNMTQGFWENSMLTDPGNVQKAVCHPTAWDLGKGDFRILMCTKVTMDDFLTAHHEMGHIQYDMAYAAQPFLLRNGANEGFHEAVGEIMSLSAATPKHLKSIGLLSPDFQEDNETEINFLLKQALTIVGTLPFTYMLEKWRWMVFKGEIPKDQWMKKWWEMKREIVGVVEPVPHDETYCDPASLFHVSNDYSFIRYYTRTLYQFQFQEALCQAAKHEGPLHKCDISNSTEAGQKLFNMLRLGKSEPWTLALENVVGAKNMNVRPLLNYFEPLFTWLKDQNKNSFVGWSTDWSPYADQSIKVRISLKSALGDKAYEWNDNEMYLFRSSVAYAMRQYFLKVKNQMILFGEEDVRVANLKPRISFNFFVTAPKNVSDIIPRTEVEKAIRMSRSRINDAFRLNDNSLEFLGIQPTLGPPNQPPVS
T4 sequence (P60033 113-201): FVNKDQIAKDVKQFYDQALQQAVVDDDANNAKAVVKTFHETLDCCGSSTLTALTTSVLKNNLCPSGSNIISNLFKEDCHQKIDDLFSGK
T4 sequence (P27958 384-746): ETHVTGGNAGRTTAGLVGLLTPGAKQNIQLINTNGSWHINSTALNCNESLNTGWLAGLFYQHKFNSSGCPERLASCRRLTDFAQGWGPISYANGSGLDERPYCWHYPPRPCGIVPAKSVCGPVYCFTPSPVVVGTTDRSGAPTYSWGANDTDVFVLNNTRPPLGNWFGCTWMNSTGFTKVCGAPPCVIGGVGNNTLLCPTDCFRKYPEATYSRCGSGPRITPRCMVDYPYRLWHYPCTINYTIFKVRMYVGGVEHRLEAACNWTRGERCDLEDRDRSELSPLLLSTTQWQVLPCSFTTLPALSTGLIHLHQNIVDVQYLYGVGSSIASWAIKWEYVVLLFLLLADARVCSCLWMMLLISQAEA

CCN(CCO)CCCC(C)Nc1ccnc2cc(Cl)ccc12 (stereo not drawn) [HCQ, hydroxychloroquine]
IC50 [1, 12]: > 500 µM

CN(C)c1ccc2nc3ccc(=[N+](C)C)cc-3sc2c1 [MeBlu, methylene blue]
inhibition of CD40–CD154 (CD40L) PPI (CD40–CD154 PPI): inhibited; also recorded: low micromolar
IC50 (HCoV-NL63 S1–hACE2 PPI): 1930 nM
treated patients who responded well to the treatment (COVID-19 [2]; Phase 1, MeBlu 1 mg/kg with vitamin C and N-acetyl cysteine, critically ill, ref [50]): four of the five
hospital stays (COVID-19 [2]; Phase 2, vs. 11.7 ± 6.6 without MeBlu, p = 0.004, ref [51]): 7.3 ± 4.7 days
mortality (COVID-19 [2]; Phase 2, vs. 22.5% without MeBlu, ref [51]): 12.5%
hospital stays (COVID-19 [2]; Phase 3, oral MeBlu added to standard care, 223 patients, vs. 10.6 ± 9.2, p < 0.001, ref [52]): 6.2 ± 3.1
mortality (COVID-19 [2]; Phase 3, vs. 21.4%, p = 0.07, ref [52]): 12.2%
IC50 ([1]; Pseudovirus, HEK-293T, read-out: IC50, inhibition of cell entry of pseudovirus, BacMam pseudovirus, original strain, HEK293T): 3.6 µM
IC50 ([1]; read-out: IC50, inhibition of cell entry of pseudovirus, BacMam pseudovirus, original strain, HEK293T): 3.64 µM
IC50 (IL-2–IL-2Rα PPI): 370 nM
SPR binding to SARS-CoV-2 spike RBD (SARS-CoV-2 spike RBD): low‐micromolar binding; also recorded: low micromolar range
TC50, cell viability (MTT) (HEK293T cells): 57.9 µM
side effects or adverse events (COVID-19 [3]): no major side effects or adverse events
activity against influenza virus H1N1 (influenza virus H1N1): Also active against influenza virus H1N1
IC50 [5]: 9 µM
IC50 (hCoV-229E): 1400 nM
patients who developed influenza-like illness [7]: none
IC50 (SARS-CoV-2 pseudovirus): 3 to 5 µM
SPR binding to hACE2 (hACE2): low micromolar range
dose above which undesired side effects (nausea, vomiting, hemolysis) are increasingly common [8]: higher than 7 mg/kg
inhibition of TNF-R1–TNFα PPI (TNF-R1−TNFα PPI): inhibited; also recorded: low micromolar
IC50 (HCV E–CD81 PPI): 800 nM
hospital stays (COVID-19 [9]; nebulized MeBlu, observational study, 63 patients, vs. 12, ref [55]): 9.17 days
trough levels ([10]; 207 mg/day (69 mg, t.i.d., p.o.), ref [43]): 6 to 7 µM
oral bioavailability (F) ([10]; ref [42]): ≈ 80%
terminal elimination half-life (t1/2) ([10]; ref [42]): ≈ 14 h

Nc1c(/N=N/c2ccc([N+](=O)[O-])cc2)c(S(=O)(=O)O)cc2cc(S(=O)(=O)O)c(/N=N/c3ccccc3)c(O)c12 [NBlBk, naphthol blue black]
IC50 [1, 12]: > 500 µM

O=S(=O)(O)c1ccc(N=Nc2c(O)ccc3cc(S(=O)(=O)O)ccc23)cc1 [SY(FD&C#6), sunset yellow FCF]
IC50 [1, 12]: > 500 µM
